Data: US8680290B2, “Isoxazoline derivatives and their use as herbicides” (Syngenta Limited, priority 2004, dated 2014)

Columns and labels:
Type in all cases: in vivo
[1] = test system: Monocotyledonous and dicotyledonous test plants; experiment: Example B2 herbicidal action, application pre-emergence, 96-cell seed trays (Table B2b); settings: 1000 g/ha
Experimental: Monocotyledonous and dicotyledonous test plants were sown in sterilised standard soil in seed trays each having 96 cells. After one day (pre-emergence) or after 8 to 9 days cultivation (post-emergence) under controlled conditions in a climatic chamber (cultivation at 17/23° C.; 13 hours light; 50-60% humidity; after application at 19/24° C.), the plants were treated with an aqueous spray solution of 1000 mg/l of the active ingredient used (rate of application: […]; incl. 10% DMSO as solvent). The plants were grown on in the climatic chamber until the test was evaluated (10 total damage to plant, 0=no damage to plant) after 9 or 13 days.

[2] = test system: Monocotyledonous and dicotyledonous test plants; experiment: Example B1 herbicidal action, application pre-emergence (Table B1b); settings: 250 g/ha, evaluated after 4 weeks
Summary of the method: (§1)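 Visual damage rating, 10 = plant dead and 0 = unharmed, taken at 3 weeks for post-emergence and 4 weeks for pre-emergence treatment. Application by spray of formulated aqueous solution either immediately after sowing or at 8–9 days' growth, with mono- and dicot plants kept in a greenhouse.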

[3] = test system: Monocotyledonous and dicotyledonous test plants; experiment: Example B1 herbicidal action, application post-emergence (Table B1a); settings: 250 g/ha, evaluated after 3 weeks, scale 0-10
Summary of the method: as §1

Row | Compound | herbicidal action (damage rating 0-10), Agrostis [1] | herbicidal action (damage rating 0-10), Digitaria [1] | herbicidal action (damage rating 0-10), Poa [1] | herbicidal action (damage rating 0-10), Setaria [1] | herbicidal action (damage rating 0-10), Amaranthus [2] | herbicidal action (damage rating 0-10), Digitaria [2] | herbicidal action (damage rating 0-10), Panicum [2] | herbicidal action (damage rating 0-10), Setaria [2] | herbicidal action (damage rating 0-10), Sida [2] | herbicidal damage rating, Abutilon [3] | herbicidal damage rating, Amaranthus [3] | herbicidal damage rating, Digitaria [3] | herbicidal damage rating, Panicum [3] | herbicidal damage rating, Setaria [3] | herbicidal damage rating, Sida [3]
1 | CC1(C)CC(S(=O)(=O)C(C)(Cl)c2c(F)cccc2F)=NO1 (stereo not shown) [1.15] | 2 | 9 | 10 | 9 | 10 | 9 | 10 | 8 | 0 |  |  |  |  |  | 
2 | CC1(C)CC(S(=O)(=O)C2(c3c(F)cccc3F)CC2[N+](=O)[O-])=NO1 (stereo not shown) [1.48] | 10 | 9 | 10 | 8 |  |  |  |  |  |  |  |  |  |  | 
3 | COCC(=O)OC(COC)=C(c1c(F)cccc1F)S(=O)(=O)C1=NOC(C)(C)C1 [1.100] | 5 | 7 | 9 | 3 |  |  |  |  |  |  |  |  |  |  | 
4 | Cn1nc(C(F)(F)F)c(C(F)S(=O)(=O)C2=NOC(C)(C)C2)c1Cl (stereo not shown) [2.02] | 10 | 9 | 10 | 10 |  |  |  |  |  |  |  |  |  |  | 
5 | CCOC(=O)CCC(c1c(F)cccc1F)S(=O)(=O)C1=NOC(C)(C)C1 (stereo not shown) [Compound No. 1.08, 4-(2,6-difluoro-phenyl)-4-(5,5-dimethyl-4,5-dihydroisoxazole-3-sulfonyl)-butyric acid ethyl ester] | 7 | 8 | 9 | 3 |  |  |  |  |  |  |  |  |  |  | 
6 | CC1(C)CC(S(=O)(=O)C2(c3c(F)cccc3F)CC2(Cl)Cl)=NO1 (stereo not shown) [Compound No. 1.45, 3-[2,2-dichloro-1-(2,6-difluoro-phenyl)-cyclopropanesulfonyl]-5,5-dimethyl-4,5-dihydroisoxazole] | 7 | 8 | 10 | 6 |  |  |  |  |  |  |  |  |  |  | 
7 | COCC(=O)C(c1c(F)cccc1F)S(=O)(=O)C1=NOC(C)(C)C1 (stereo not shown) [Compound No. 1.59] | 9 | 8 | 10 | 9 |  |  |  |  |  |  |  |  |  |  | 
8 | CC1(C)CC(S(=O)(=O)C(F)(Br)c2c(F)cccc2F)=NO1 (stereo not shown) [Compound No. 1.63, 3-[bromo-(2,6-difluorophenyl)-fluoro-methanesulfonyl]-5,5-dimethyl-4,5-dihydroisoxazole] |  |  |  |  | 10 | 10 | 10 | 10 | 8 | 4 | 3 | 7 | 7 | 7 | 4
9 | CC1(C)CC(S(=O)(=O)C(c2c(F)cccc2F)C(F)(F)F)=NO1 (stereo not shown) [Compound No. 1.113, 3-[1-(2,6-difluoro-phenyl)-2,2,2-trifluoro-ethanesulfonyl]-5,5-dimethyl-4,5-dihydroisoxazole] |  |  |  |  | 8 | 9 | 10 | 10 | 0 | 2 | 0 | 8 | 3 | 7 | 4
